Measurements reported in patent US6737383B1, “Herbicidal oxadiazolidines” (priority 1999, dated 2004).

Legend:
maize hybrid P33G26 = experiment: Test G maize injury with safener-treated seed; details: in vivo
Summary of the method: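 Maize hybrid P33G26 seed, treated with dichlormid, fenchlorazole-ethyl or naphthalic anhydride or left untreated, was sown in soil pots, then sprayed pre-emergence with several compound rates at 310 L/ha. Plants grew in a greenhouse (14 h day, about 27/24 °C day/night), with 4–5 replicates. Injury was scored visually against untreated controls 28 days after application.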

purple nutsedge = experiment: Test B pre/postemergence purple nutsedge; assay type: in vivo, Cyperus rotundus
Summary of the method: (§1)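 Herbicidal effect was estimated by eye on a ten-point control scale after plants spent twelve to sixteen days in a greenhouse following soil or foliar treatment. Foliar sprays targeted plants at one to four leaves; all doses were formulated in a non-phytotoxic solvent with surfactant.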

rice = experiment: Test B flood test rice; assay type: in vivo, Oryza sativa
Summary of the method: (§2)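 Plants were grown to the 2-leaf stage before treatment with test chemical, then held in a greenhouse for twelve to sixteen days. Injury was visually rated against untreated controls on a 0–10 scale, where 0 is no effect and 10 is complete control.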

cocklebur = experiment: Test B pre/postemergence cocklebur; assay type: in vivo, Xanthium strumarium
Summary of the method: as §1

bamyardgrass = experiment: Test B flood test barnyardgrass; assay type: in vivo, Echinochloa crus-galli
Summary of the method: as §2

soybean = experiment: Test B pre/postemergence soybean; assay type: in vivo, Glycine max
Summary of the method: as §1

smallflower flatsedge = experiment: Test B flood test smallflower flatsedge; assay type: in vivo, Cyperus difformis
Summary of the method: as §2

surinam grass = experiment: Test B pre/postemergence surinam grass; assay type: in vivo, Brachiaria decumbens
Summary of the method: as §1

wheat = experiment: Test B pre/postemergence wheat; assay type: in vivo, Triticum aestivum
Summary of the method: as §1

blackgrass = experiment: Test B pre/postemergence blackgrass; assay type: in vivo, Alopecurus myosuroides
Summary of the method: as §1

velvetleaf = experiment: Test B pre/postemergence velvetleaf; assay type: in vivo, Abutilon theophrasti
Summary of the method: as §1

pigweed = experiment: Test B pre/postemergence pigweed; assay type: in vivo, Amaranthus retroflexus
Summary of the method: as §1

morningglory = experiment: Test B pre/postemergence morningglory; assay type: in vivo, Ipomoea hederacea
Summary of the method: as §1

giant foxtail = experiment: Test B pre/postemergence giant foxtail; assay type: in vivo, Setaria faberii
Summary of the method: as §1

bedstraw = experiment: Test B pre/postemergence bedstraw; assay type: in vivo, Galium aparine
Summary of the method: as §1

duck salad = experiment: Test B flood test duck salad; assay type: in vivo, Heteranthera limosa
Summary of the method: as §2

crabgrass = experiment: Test B pre/postemergence crabgrass; assay type: in vivo, Digitaria sanguinalis
Summary of the method: as §1

sugar beet = experiment: Test B pre/postemergence sugar beet; assay type: in vivo, Beta vulgaris
Summary of the method: as §1

rape = experiment: Test B pre/postemergence rape; assay type: in vivo, Brassica napus
Summary of the method: as §1

corn = experiment: Test B pre/postemergence corn; assay type: in vivo, Zea mays
Summary of the method: as §1

wild oat = experiment: Test B pre/postemergence wild oat; assay type: in vivo, Avena fatua
Summary of the method: as §1

[1] = Postemergence, Rate 62 g/ha, scale 0 to 10, 0 is no effect, 10 is complete control
[2] = Preemergence, Rate 62 g/ha, scale 0 to 10 (0 no effect, 10 complete control)
[3] = Preemergence, Rate 125 g/ha, scale of 0 to 10 where 0 is no effect and 10 is complete control
[4] = Preemergence, Rate 250 g/ha, scale 0 to 10 (0 no effect, 10 complete control)
[5] = Preemergence, Rate 500 g/ha, scale of 0 to 10 where 0 is no effect and 10 is complete control
[6] = Rate 62 g/ha, flood test species, Pre-emergence, visual evaluation after twelve to sixteen days
[7] = Rate 125 g/ha, under heading Pre-emergence, flood test species, visual evaluation after twelve to sixteen days
[8] = Rate 250 g/ha, Pre-emergence (flood test species), scale 0 to 10, 0 is no effect, 10 is complete control
[9] = Rate 500 g/ha, Pre-emergence section of Table B, 0 to 10 scale (0 no effect, 10 complete control)
[10] = Postemergence, Rate 125 g/ha, scale of 0 to 10 where 0 is no effect and 10 is complete control
[11] = Postemergence, Rate 250 g/ha, scale of 0 to 10, 0 is no effect, 10 is complete control
[12] = Postemergence, Rate 500 g/ha, scale of 0 to 10 where 0 is no effect and 10 is complete control

## O=C1OC(=O)c2cccc3cccc1c23 [naphthalic anhydride, reference compound]
Maize hybrid P33G26
  Effect of safener seed treatment on corn germination: severely inhibited corn germination
  Safening effect on maize injury: safened against the herbicide damage

## COCCn1c(=O)on(C(=O)N(c2ccc(F)cc2F)C(C)C)c1=O [Compound 628]
Purple nutsedge; [1]
  Plant response rating, Nutsedge: 0
Purple nutsedge; [2]
  Nutsedge plant response rating: 3
Purple nutsedge; [3]
  Nutsedge plant response rating: 6
Purple nutsedge; [4]
  Plant response rating, Nutsedge: 6
Purple nutsedge; [5]
  Plant response rating, Nutsedge: 9
rice; [6]
  Plant response rating, Rice (0 to 10 scale, 0 is no effect, 10 is complete control): 0
rice; [7]
  Rice plant response rating (0 to 10 scale, 0 is no effect, 10 is complete control): 0
rice; [8]
  Rice plant response rating: 0
rice; [9]
  Rice plant response rating: 0
cocklebur; [1]
  Plant response rating, Cocklebur: 0
cocklebur; [10]
  Plant response rating, Cocklebur: 1
cocklebur; [11]
  Cocklebur plant response rating: 6
cocklebur; [12]
  Plant response rating, Cocklebur: 7
cocklebur; [2]
  Cocklebur plant response rating: 2
cocklebur; [3]
  Cocklebur plant response rating: 3
cocklebur; [4]
  Plant response rating, Cocklebur: 4
cocklebur; [5]
  Plant response rating, Cocklebur: 7
bamyardgrass; [6]
  Plant response rating, Barnyardgrass (0 to 10 scale, 0 is no effect, 10 is complete control): 0
bamyardgrass; [7]
  Barnyardgrass plant response rating (0 to 10 scale, 0 is no effect, 10 is complete control): 0
bamyardgrass; [8]
  Barnyardgrass plant response rating: 0
bamyardgrass; [9]
  Barnyardgrass plant response rating: 0
soybean; [1]
  Plant response rating, Soybean: 4
soybean; [2]
  Soybean plant response rating: 0
soybean; [3]
  Soybean plant response rating: 0
soybean; [4]
  Plant response rating, Soybean: 4
soybean; [5]
  Plant response rating, Soybean: 7
Smallflower flatsedge; [6]
  Plant response rating, S. Flatsedge (0 to 10 scale, 0 is no effect, 10 is complete control): 0
Smallflower flatsedge; [7]
  S. Flatsedge plant response rating (0 to 10 scale, 0 is no effect, 10 is complete control): 0
Smallflower flatsedge; [8]
  S. Flatsedge plant response rating: 0
Smallflower flatsedge; [9]
  S. Flatsedge plant response rating: 0
Surinam grass; [1]
  Plant response rating, B. signalgrass: 2
Surinam grass; [10]
  Plant response rating, B. signalgrass: 8
Surinam grass; [11]
  B. signalgrass plant response rating: 8
Surinam grass; [12]
  Plant response rating, B. signalgrass: 8
Surinam grass; [2]
  B. signalgrass plant response rating: 3
Surinam grass; [3]
  B. signalgrass plant response rating: 7
Surinam grass; [4]
  Plant response rating, B. signalgrass: 8
Surinam grass; [5]
  Plant response rating, B. signalgrass: 10
wheat; [1]
  Plant response rating, Wheat: 0
wheat; [10]
  Plant response rating, Wheat: 4
wheat; [11]
  Wheat plant response rating: 7
wheat; [2]
  Wheat plant response rating: 3
wheat; [3]
  Wheat plant response rating: 3
wheat; [4]
  Plant response rating, Wheat: 7
wheat; [5]
  Plant response rating, Wheat: 10
blackgrass; [1]
  Plant response rating, Blackgrass: 6
blackgrass; [10]
  Plant response rating, Blackgrass: 8
blackgrass; [11]
  Blackgrass plant response rating: 9
blackgrass; [12]
  Plant response rating, Blackgrass: 9
blackgrass; [2]
  Blackgrass plant response rating: 6
blackgrass; [3]
  Blackgrass plant response rating: 9
blackgrass; [4]
  Plant response rating, Blackgrass: 10
blackgrass; [5]
  Plant response rating, Blackgrass: 10
velvetleaf; [1]
  Plant response rating, Velvetleaf: 6
velvetleaf; [10]
  Plant response rating, Velvetleaf: 6
velvetleaf; [11]
  Velvetleaf plant response rating: 8
velvetleaf; [2]
  Velvetleaf plant response rating: 7
velvetleaf; [4]
  Plant response rating, Velvetleaf: 9
velvetleaf; [5]
  Plant response rating, Velvetleaf: 10
pigweed; [1]
  Plant response rating, Redroot pigweed: 3
pigweed; [10]
  Plant response rating, Redroot pigweed: 3
pigweed; [11]
  Redroot pigweed plant response rating: 7
pigweed; [2]
  Redroot pigweed plant response rating: 8
pigweed; [3]
  Redroot pigweed plant response rating: 9
pigweed; [4]
  Plant response rating, Redroot pigweed: 9
pigweed; [5]
  Plant response rating, Redroot pigweed: 10
morningglory; [1]
  Plant response rating, Morningglory: 1
morningglory; [10]
  Plant response rating, Morningglory: 2
morningglory; [11]
  Morningglory plant response rating: 2
morningglory; [12]
  Plant response rating, Morningglory: 2
morningglory; [2]
  Morningglory plant response rating: 5
morningglory; [3]
  Morningglory plant response rating: 5
morningglory; [4]
  Plant response rating, Morningglory: 5
morningglory; [5]
  Plant response rating, Morningglory: 7
Giant foxtail; [1]
  Plant response rating, Giant foxtail: 8
Giant foxtail; [10]
  Plant response rating, Giant foxtail: 9
Giant foxtail; [11]
  Giant foxtail plant response rating: 9
Giant foxtail; [12]
  Plant response rating, Giant foxtail: 9
Giant foxtail; [2]
  Giant foxtail plant response rating: 10
Giant foxtail; [3]
  Giant foxtail plant response rating: 10
Giant foxtail; [4]
  Plant response rating, Giant foxtail: 10
Giant foxtail; [5]
  Plant response rating, Giant foxtail: 10
bedstraw; [1]
  Plant response rating, Bedstraw: 0
bedstraw; [2]
  Bedstraw plant response rating: 6
bedstraw; [3]
  Bedstraw plant response rating: 7
bedstraw; [4]
  Plant response rating, Bedstraw: 10
bedstraw; [5]
  Plant response rating, Bedstraw: 10
Duck salad; [6]
  Plant response rating, Ducksalad (0 to 10 scale, 0 is no effect, 10 is complete control): 0
Duck salad; [7]
  Ducksalad plant response rating (0 to 10 scale, 0 is no effect, 10 is complete control): 0
Duck salad; [8]
  Ducksalad plant response rating: 0
Duck salad; [9]
  Ducksalad plant response rating: 0
crabgrass; [1]
  Plant response rating, Crabgrass: 8
crabgrass; [11]
  Crabgrass plant response rating: 9
crabgrass; [12]
  Plant response rating, Crabgrass: 9
crabgrass; [2]
  Crabgrass plant response rating: 8
crabgrass; [3]
  Crabgrass plant response rating: 8
crabgrass; [4]
  Plant response rating, Crabgrass: 9
crabgrass; [5]
  Plant response rating, Crabgrass: 10
Sugar beet; [1]
  Plant response rating, Sugarbeets: 0
Sugar beet; [10]
  Plant response rating, Sugarbeets: 0
Sugar beet; [11]
  Sugarbeets plant response rating: 3
Sugar beet; [2]
  Sugarbeets plant response rating: 3
Sugar beet; [3]
  Sugarbeets plant response rating: 4
Sugar beet; [4]
  Plant response rating, Sugarbeets: 7
Sugar beet; [5]
  Plant response rating, Sugarbeets: 7
rape; [1]
  Plant response rating, Rape: 0
rape; [10]
  Plant response rating, Rape: 0
rape; [11]
  Rape plant response rating: 3
rape; [12]
  Plant response rating, Rape: 6
rape; [2]
  Rape plant response rating: 0
rape; [3]
  Rape plant response rating: 2
rape; [4]
  Plant response rating, Rape: 4
rape; [5]
  Plant response rating, Rape: 9
corn; [1]
  Plant response rating, Corn: 0
corn; [10]
  Plant response rating, Corn: 6
corn; [11]
  Corn plant response rating: 7
corn; [12]
  Plant response rating, Corn: 7
corn; [2]
  Corn plant response rating: 3
corn; [3]
  Corn plant response rating: 6
corn; [4]
  Plant response rating, Corn: 7
corn; [5]
  Plant response rating, Corn: 9
Wild oat; [1]
  Plant response rating, Wild oats: 0
Wild oat; [10]
  Plant response rating, Wild oats: 3
Wild oat; [11]
  Wild oats plant response rating: 5
Wild oat; [3]
  Wild oats plant response rating: 2
Wild oat; [4]
  Plant response rating, Wild oats: 8
Wild oat; [5]
  Plant response rating, Wild oats: 10
